Results published in US7361666B2, “Heterocyclic analgesic compounds and methods of use thereof” (Sepracor, Inc., priority 1999, dated 2008).

Tests used:
μ opioid receptor = μ opioid receptor (Homo sapiens, UniProt P35372); assay: Opiate receptor binding (μ); conditions: procedure of Wang et al.
Excerpt: Another assay useful in the present invention concerns determining the ability of a ligand to bind to a biological receptor utilizing a technique well known in the art referred to as a radioligand binding assay. This assay accurately determines the specific binding of a radioligand to a targeted receptor through the delineation of its total and nonspecific binding components. Total binding is defined as the amount of radioligand that remains following the rapid separation of the radioligand bound in a receptor preparation (cell homogenates or recombinate receptors) from that which is unbound. The nonspecific binding component is defined as the amount of radioligand that remains following separation of the reaction mixture consisting of receptor, radioligand and an excess of unlabeled ligand. Under this condition, the only radioligand that remains represents that which is bound to components other that receptor. The specific radioligand bound is determined by subtracting the nonspecific from total radioactivity bound. For a specific example of radioligand binding assay for μ-opioid receptor, see Wang, J. B. et al. FEBS Letters 1994, 338, 217.
(§1) The opioid (μ, κ, δ) receptor-binding capabilities of compounds described herein were determined according to the procedures outlined by Wang et al. (FEBS Letters 1994, 338, 217), Maguire et al. (Eur. J. Pharmacol. 1992, 213, 219), and Simonin et al. (Mol. Pharmacol. 1994, 46, 1015).

κ opioid receptor = κ opioid receptor (Cavia porcellus, UniProt P41144); assay: Opiate receptor binding (κ); conditions: procedure of Maguire et al.
κ opioid receptor, sequence (P41144 whole entry): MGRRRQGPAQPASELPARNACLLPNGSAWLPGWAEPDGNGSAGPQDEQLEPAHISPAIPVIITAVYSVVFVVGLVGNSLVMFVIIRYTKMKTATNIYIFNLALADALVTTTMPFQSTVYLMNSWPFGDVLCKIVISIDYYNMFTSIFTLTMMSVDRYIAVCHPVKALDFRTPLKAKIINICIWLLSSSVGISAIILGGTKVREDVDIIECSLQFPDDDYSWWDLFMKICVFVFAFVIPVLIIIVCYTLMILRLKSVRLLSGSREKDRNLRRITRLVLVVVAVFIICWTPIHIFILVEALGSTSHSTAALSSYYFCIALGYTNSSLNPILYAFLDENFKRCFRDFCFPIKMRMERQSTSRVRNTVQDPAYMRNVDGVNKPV
Description: as §1

δ opioid receptor = δ opioid receptor (Homo sapiens, UniProt P41143); assay: Opiate receptor binding (δ); conditions: procedure of Simonin et al.
δ opioid receptor, sequence (P41143 whole entry): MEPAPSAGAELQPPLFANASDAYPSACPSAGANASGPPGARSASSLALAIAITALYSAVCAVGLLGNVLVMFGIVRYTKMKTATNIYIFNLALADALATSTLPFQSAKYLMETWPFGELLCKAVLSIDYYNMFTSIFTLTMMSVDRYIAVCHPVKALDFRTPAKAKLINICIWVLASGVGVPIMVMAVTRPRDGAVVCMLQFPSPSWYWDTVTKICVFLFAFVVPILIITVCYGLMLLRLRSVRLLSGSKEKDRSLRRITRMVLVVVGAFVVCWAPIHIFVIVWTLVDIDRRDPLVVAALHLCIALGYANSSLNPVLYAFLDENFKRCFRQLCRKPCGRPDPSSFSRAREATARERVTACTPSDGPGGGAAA
Description: as §1

μ opioid receptor, sequence (P35372 whole entry): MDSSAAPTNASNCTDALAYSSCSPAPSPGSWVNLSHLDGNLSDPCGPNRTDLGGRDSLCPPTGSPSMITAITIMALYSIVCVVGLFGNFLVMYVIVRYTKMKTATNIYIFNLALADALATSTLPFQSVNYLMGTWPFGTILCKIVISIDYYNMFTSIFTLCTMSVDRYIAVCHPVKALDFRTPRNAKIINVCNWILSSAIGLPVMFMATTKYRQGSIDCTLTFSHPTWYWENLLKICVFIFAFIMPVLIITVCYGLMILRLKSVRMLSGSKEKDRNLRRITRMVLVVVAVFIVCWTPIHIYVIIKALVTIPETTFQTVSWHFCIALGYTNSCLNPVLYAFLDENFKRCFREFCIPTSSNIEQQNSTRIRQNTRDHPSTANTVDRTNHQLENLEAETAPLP

`CCC(=O)N(CC1CCCN(CCc2ccccc2)C1)C(C)c1ccccc1` (single isomer, unassigned) [Compound 225, N-(1-Phenethyl-piperidin-3-ylmethyl)-N-(1-phenyl-ethyl)-propionamide] gave an IC50 (μ opioid receptor) of less than 1000 nM, an IC50 (κ opioid receptor) greater than 1000 nM and an IC50 (δ opioid receptor) greater than 1000 nM.

For `CCC(=O)N(CC1CCCN(CCc2ccccc2)C1)C(C)c1ccccc1` (single isomer, unassigned) [Compound 220, N-(1-Phenethyl-piperidin-3-ylmethyl)-N-(1-phenyl-ethyl)-propionamide], the IC50 (μ opioid receptor) was less than 1000 nM, the IC50 (κ opioid receptor) was less than 1000 nM and the IC50 (δ opioid receptor) was greater than 1000 nM.

With `CCC(=O)N(CC1CCCN(CCc2ccccc2)C1)C(C)c1ccccc1` (single isomer, unassigned) [Compound 223, N-(1-Phenethyl-piperidin-3-ylmethyl)-N-(1-phenyl-ethyl)-propionamide] the IC50 (μ opioid receptor) was less than 100 nM, the IC50 (κ opioid receptor) was greater than 1000 nM and the IC50 (δ opioid receptor) was greater than 1000 nM.

`CCC(=O)N(CC1CCCN(CCc2ccccc2)C1)C(C)c1ccccc1` (single isomer, unassigned) [Compound 224, N-(1-Phenethyl-piperidin-3-ylmethyl)-N-(1-phenyl-ethyl)-propionamide] was tested, and the IC50 (μ opioid receptor) was less than 1000 nM, the IC50 (κ opioid receptor) was greater than 1000 nM and the IC50 (δ opioid receptor) was greater than 1000 nM.

For `CCC(=O)N(CC1CCCN(CCc2ccccc2)C1)C(C)c1ccccc1` (single isomer, unassigned) [Compound 222, N-(1-Phenethyl-piperidin-3-ylmethyl)-N-(1-phenyl-ethyl)-propionamide], the IC50 (μ opioid receptor) was greater than 1000 nM, the IC50 (κ opioid receptor) was greater than 1000 nM and the IC50 (δ opioid receptor) was greater than 1000 nM.

In the case of `CCC(=O)N(CC1CCCN(CCc2ccccc2)C1)C(C)c1ccccc1` (single isomer, unassigned) [Compound 221, N-(1-Phenethyl-piperidin-3-ylmethyl)-N-(1-phenyl-ethyl)-propionamide], the IC50 (μ opioid receptor) is reported as less than 1000 nM, the IC50 (κ opioid receptor) is reported as less than 1000 nM and the IC50 (δ opioid receptor) is reported as greater than 1000 nM.
